The subject of assay [1] is spontaneous motor activity in mice. The assay is described as follows: In vivo predictive sedation-hypnosis test (spontaneous motor activity, traveled distance). The arrangement: species or system mouse. Particulars: for % Motor activity inhibition: male CD1 mice, single equimolecular intraperitoneal dose, traveled distance vs control over 30 min (first 5 min discarded); for ID50 inhibiting spontaneous motor activity: dose-response curve, intraperitoneal. How it is done: b) In Vivo Determination of Predictive Sedative-Hypnotic Action
The in vivo effects of these compounds were assessed by a predictive sedation-hypnosis test in mice (D. J. Sanger et al., Eur. J. Pharmacol., 313, 35-42, 1996; and G. Griebel et al., Psychopharmacology, 146, 205-213, 1999).
Groups of 5-8 male CD1 mice, weighing 22-26 g at the time of test, were used. The test compounds were administered in single equimolecular intraperitoneal doses, suspended in 0.25% agar with one drop of Tween in a volume of 10 mL/kg. Control animals received the vehicle alone. Using a Smart System (Panlab, S. L., Spain) the traveled distance in cm was recorded for each mouse at 5 min intervals during a period of 30 minutes after dosing. The inhibition percentage traveled distance of treated animals versus control animals (the first 5 min were discarded) was calculated.

For assay [2], the target named is T1, α1-subunit of the GABAA receptor (Rattus norvegicus, UniProt P62813).
T1 construct: the cerebellum (tissue that mostly contains α1-GABAA receptor); from tissue; host or cells: rat cerebellum membranes
The assay is described as follows: Ligand-binding assay, radiolabeled flumazenil competition, cerebellum membranes. The conditions noted are these: 1 nM radiolabeled flumazenil; for inhibition at 10 µM: 10^−5 M test compound, read-out: % Inhib 10^−5M (affinity for the α1-subunit of the GABAA receptor); for inhibition at 0.1 µM: 10^−7 M test compound, read-out: % Inhib 10^−7M (affinity for the α1-subunit of the GABAA receptor). As for the experimental part: (§1) a) Ligand-Binding Assays. Determination of the Affinity of Test Compounds for α1- and α2-GABAA Receptor
(§2) Male Sprague-Dawley rats weighing 200-250 g at the time of experiment were used. After decapitation of the animal, the cerebellum (tissue that mostly contains α1-GABAA receptor) and spinal cord (tissue that mostly contains α2-GABAA receptor) were removed. The membranes were prepared according to the method by J. Lameh et al. (Prog. Neuro-Psychopharmacol. Biol. Psychiatry, 24, 979-991, 2000) and H. Noguchi et al. (Eur J Pharm, 434, 21-28, 2002) with slight modifications. Once the tissues weighed, they were suspended in 50 mM Tris.HCl (pH 7.4), 1:40 (v/v), or sucrose 0.32 M in the case of spinal cord, homogenized and then centrifuged at 20,000 g for 10 min at 7° C. The resulting pellet was resuspended under the same conditions and centrifuged again. The pellet was finally resuspended on a minimum volume and kept at −80° C. overnight. On the next day, the process was repeated until the final pellet was resuspended at a ratio of 1:10 (v/v) in the case of cerebellum and at a ratio of 1:5 (v/v) in the case of spinal cord.
(§3) Affinity was determined by competitive tests using radiolabeled flumazenil as ligand. The tests were performed according to the methods described by S. Arbilla et al. (Eur. J. Pharmacol., 130, 257-263, 1986); and Y. Wu et al. (Eur. J. Pharmacol., 278, 125-132, 1995) using 96-well microtiter plates. The membranes containing the study receptors, flumazenil (radiolabeling at a final concentration of 1 nM) and ascending concentrations of test compounds (in a total volume of 230 μl in 50 mM [pH 7.4] Tris.HCl buffer) were incubated. Simultaneously, the membranes were only incubated with the radiolabeled flumazenil (total binding, 100%) and in the presence of an elevated concentration of unradiolabeled flumazenil (non-specific binding, % estimation of radiolabeled ligand). The reactions started on adding the radiolabeled ligand followed by incubation for 60 minutes at 4° C. At the end of the incubation period, 200 μl of reaction were transferred to a multiscreen plate (Millipore) and filtered using a vacuum manifold and then washed three times with cold test buffer. The multiscreen plates were equipped with a GF/B filter that retained the membranes containing the receptors and the radiolabeled ligand which had been bound to the receptors. After washing, the plates were left till dry. Once dried, scintillation liquid was added and left under stirring overnight. The next day the plates were counted using a Perkin-Elmer Microbeta scintillation counter.
(§4) For analysis of the results the percentage of specific binding for every concentration of test compound was calculated as follows: % specific binding=(X−N/T−N)×100 where, • X: amount of bound ligand for every concentration of compound. • T: total binding, maximum amount bound to the radiolabeled ligand. • N: non-specific binding, amount of radiolabeled ligand bound in a non-specific way irrespective of the receptor used.
(§5) Every concentrations of compound were tested in triplicate and their mean values were used to determine the experimental values of % specific binding versus the concentration of compound. Affinity data are expressed as % inhibition at 10^−5 M and 10^−7 M concentrations.

Assay [3] deals with α2-subunit of the GABAA receptor. The assay is described as follows: Ligand-binding assay, radiolabeled flumazenil competition, spinal cord membranes. Particulars: rat spinal cord membranes, 1 nM radiolabeled flumazenil; for % Inhib 10^−5M (affinity for the α2-subunit of the GABAA receptor): 10^−5 M test compound; for % Inhib 10^−7M (affinity for the α2-subunit of the GABAA receptor): 10^−7 M test compound. As for the experimental part: as §1, §2, §3, §4, §5

Turning to `Cc1ccc(-c2nc3ccc(C)cn3c2CC(=O)N/N=C/c2ccc(Cl)cc2)cc1` [Example 7, (6-Methyl-2-p-tolyl-imidazo[1,2-a]pyridin-3-yl)-acetic Acid (4-chlorobenzylidene)-hydrazide], the “% Motor activity inhibition” value in assay [1] is 25.05%. For the same compound, in assay [2], the inhibition at 10 µM is 46.1% and the inhibition at 0.1 µM is 0.9%.
As to `CC(C)=NNC(=O)Cc1c(-c2ccc(C)cc2)nc2ccc(C)cn12` [Example 9, (6-Methyl-2-p-tolyl-imidazo[1,2-a]pyridin-3-yl)-acetic acid isopropylidene-hydrazide], in assay [1], the “% Motor activity inhibition” value is recorded as 92.03%. In assay [2], the inhibition at 10 µM came to 98.5% and the inhibition at 0.1 µM stood at 24.2%. In assay [3], the “% Inhib 10^−5M (affinity for the α2-subunit of the GABAA receptor)” value (from here on “% Inhib 10^−5M”) was 86.6% and the “% Inhib 10^−7M (affinity for the α2-subunit of the GABAA receptor)” value (from here on “% Inhib 10^−7M”) worked out at 21.9%.
`C/C=N/NC(=O)Cc1c(-c2ccc(C)cc2)nc2ccc(C)cn12` [Example 8, (6-Methyl-2-p-tolyl-imidazo[1,2-a]pyridin-3-yl)-acetic Acid Ethylidene-hydrazide]: in assay [1], the “% Motor activity inhibition” value is 90.16%. In assay [2], the inhibition at 10 µM came out at 97.6% and the inhibition at 0.1 µM amounted to 25.2%. In assay [3], the “% Inhib 10^−5M” value is 88.6% and the “% Inhib 10^−7M” value came to 11.2%.
With `Cc1ccc(-c2nc3ccc(C)cn3c2CC(=O)N(C)C)cc1` [Zolpidem, N,N,6-trimethyl-2-p-tolylimidazo[1,2-a]pyridine-3-acetamide, reference compound], the “% Motor activity inhibition” value in assay [1] was 91.70%. Moreover, the “ID50 inhibiting spontaneous motor activity” value in assay [1] (mice) was 4.4 µmol/kg. The inhibition at 10 µM in assay [2] came out at 73.6%. Further, in assay [3], the “% Inhib 10^−5M” value is 74.1% and the “% Inhib 10^−7M” value was 19.9%.
With `Cc1ccc(-c2nc3ccc(C)cn3c2CC(=O)NN)cc1` [Example 3, (6-Methyl-2-p-tolyl-imidazo[1,2-a]pyridin-3-yl)-acetic Acid Hydrazide], in assay [1], the “% Motor activity inhibition” value is 92.03%. Also, the “ID50 inhibiting spontaneous motor activity” value in assay [1] (mice) is 1.9 µmol/kg. Moreover, in assay [1] (mice, from ID50 values), the “fold greater potency in inhibiting spontaneous motor activity compared to zolpidem” value was 2 fold. In assay [2], the inhibition at 10 µM is 98.7% and the inhibition at 0.1 µM turned out to be 55.9%.
With `Cc1ccc(-c2nc3ccc(C)cn3c2CC(=O)N(C)N)cc1` [Example 6, (6-Methyl-2-p-tolyl-imidazo[1,2-a]pyridin-3-yl)-acetic Acid N-methyl-hydrazide], the “% Motor activity inhibition” value in assay [1] is reported as 93.42%. Further, in assay [2], the inhibition at 10 µM turned out to be 99% and the inhibition at 0.1 µM amounted to 59.1%. Besides, in assay [3], the “% Inhib 10^−5M” value stood at 71.6% and the “% Inhib 10^−7M” value worked out at 2.0%.

The values are drawn from patent US7943611B2, “Imidazo[1,2-A]pyridin-3-yl-acetic acid hydrazides, processes, for their preparation and pharmaceutical uses thereof” (Ferrer International, S.A., priority 2006, dated 2011).
